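Briefly, cells in 96-well plates were exposed to five compound concentrations for 48 h, and endpoints were estimated by linear interpolation. Here, GI50 denotes the concentration required for 50% inhibition of growth.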 The source made the active and inactive calls. Cut-off read from the data, not from the text of the source: active = GI50 up to about 1.1 µM and inactive = higher.
Experiments:
Experiment in all cases: growth of human tumour cells (NCI), 48 h
LOX IMVI = test system: LOX IMVI
T47D = test system: T47D
SN12C = test system: SN12C
PC-3 = test system: PC-3
EKVX = test system: EKVX
NCI-H226 = test system: NCI-H226
SF-295 = test system: SF-295
RPMI-8226 = test system: RPMI-8226
SK-OV-3 = test system: SK-OV-3
SNB-75 = test system: SNB-75
COLO 205 = test system: COLO 205
CCRF-CEM = test system: CCRF-CEM
TK-10 = test system: TK-10
CAKI-1 = test system: CAKI-1
NCI-H23 = test system: NCI-H23
HL-60 = test system: HL-60
DU-145 = test system: DU-145
SK-MEL-28 = test system: SK-MEL-28
ACHN = test system: ACHN
HCC 2998 = test system: HCC 2998
U-251 = test system: U-251
MDA-N = test system: MDA-N
HCT-116 = test system: HCT-116
OVCAR-8 = test system: OVCAR-8
786-0 = test system: 786-0
UACC-257 = test system: UACC-257
NCI-H460 = test system: NCI-H460
SNB-19 = test system: SNB-19
Hs-578T = test system: Hs-578T
NCI/ADR-RES = test system: NCI/ADR-RES
BT-549 = test system: BT-549
A498 = test system: A498
SR = test system: SR
HCT-15 = test system: HCT-15
SK-MEL-5 = test system: SK-MEL-5
UACC-62 = test system: UACC-62
HT-29 = test system: HT-29
A549 = test system: A549
MDA-MB-435 = test system: MDA-MB-435
MOLT-4 = test system: MOLT-4
SW-620 = test system: SW-620
SF-268 = test system: SF-268
IGROV-1 = test system: IGROV-1
HOP-62 = test system: HOP-62
RXF 393 = test system: RXF 393
OVCAR-4 = test system: OVCAR-4
SK-MEL-2 = test system: SK-MEL-2
MDA-MB-231 = test system: MDA-MB-231
HOP-92 = test system: HOP-92
MCF7 = test system: MCF7
UO-31 = test system: UO-31
K562 = test system: K562
OVCAR-5 = test system: OVCAR-5
NCI-H522 = test system: NCI-H522
OVCAR-3 = test system: OVCAR-3
KM12 = test system: KM12
M14 = test system: M14
SF-539 = test system: SF-539
Malme-3M = test system: Malme-3M

Cn1c(=O)c2c(nc3n2CCCC(=O)N3CCCCl)n(C)c1=O
GI50 (LOX IMVI): > 100 µM (inactive) | GI50 (T47D): > 100 µM (inactive) | GI50 (SN12C): > 100 µM (inactive) | GI50 (PC-3): > 100 µM (inactive) | GI50 (EKVX): > 100 µM (inactive) | GI50 (NCI-H226): > 100 µM (inactive) | GI50 (SF-295): > 100 µM (inactive) | GI50 (RPMI-8226): > 100 µM (inactive) | GI50 (SK-OV-3): > 100 µM (inactive) | GI50 (SNB-75): > 100 µM (inactive) | GI50 (COLO 205): > 100 µM (inactive) | GI50 (CCRF-CEM): > 100 µM (inactive) | GI50 (TK-10): > 100 µM (inactive) | GI50 (CAKI-1): > 100 µM (inactive) | GI50 (NCI-H23): > 100 µM (inactive) | GI50 (HL-60): > 100 µM (inactive) | GI50 (DU-145): > 100 µM (inactive) | GI50 (SK-MEL-28): > 100 µM (inactive) | GI50 (ACHN): > 100 µM (inactive) | GI50 (HCC 2998): > 100 µM (inactive) | GI50 (U-251): > 100 µM (inactive) | GI50 (MDA-N): > 100 µM (inactive) | GI50 (HCT-116): > 100 µM (inactive) | GI50 (OVCAR-8): > 100 µM (inactive) | GI50 (786-0): > 100 µM (inactive) | GI50 (UACC-257): > 100 µM (inactive) | GI50 (NCI-H460): > 100 µM (inactive) | GI50 (SNB-19): > 100 µM (inactive) | GI50 (Hs-578T): > 100 µM (inactive) | GI50 (NCI/ADR-RES): > 100 µM (inactive) | GI50 (BT-549): > 100 µM (inactive) | GI50 (A498): > 100 µM (inactive) | GI50 (SR): > 100 µM (inactive) | GI50 (HCT-15): > 100 µM | GI50 (SK-MEL-5): > 100 µM (inactive) | GI50 (UACC-62): > 100 µM (inactive) | GI50 (HT-29): > 100 µM (inactive) | GI50 (A549): > 100 µM (inactive) | GI50 (MDA-MB-435): > 100 µM (inactive) | GI50 (MOLT-4): > 100 µM (inactive) | GI50 (SW-620): > 100 µM (inactive) | GI50 (SF-268): > 100 µM (inactive) | GI50 (IGROV-1): > 100 µM (inactive) | GI50 (HOP-62): > 100 µM (inactive) | GI50 (RXF 393): > 100 µM (inactive) | GI50 (OVCAR-4): > 100 µM (inactive) | GI50 (SK-MEL-2): > 100 µM (inactive) | GI50 (MDA-MB-231): > 100 µM (inactive) | GI50 (HOP-92): > 100 µM (inactive) | GI50 (MCF7): > 100 µM (inactive) | GI50 (UO-31): > 100 µM (inactive) | GI50 (K562): > 100 µM (inactive) | GI50 (OVCAR-5): > 100 µM (inactive) | GI50 (NCI-H522): > 100 µM (inactive) | GI50 (OVCAR-3): > 100 µM (inactive) | GI50 (KM12): > 100 µM (inactive) | GI50 (M14): > 100 µM (inactive)

N#Cc1c(O)c(/C=N/c2ccc(Cl)cc2)c(=O)n2c1[nH]c1ccccc12
GI50 (LOX IMVI): > 100 µM (inactive) | GI50 (SF-539): > 100 µM (inactive) | GI50 (T47D): > 100 µM (inactive) | GI50 (SN12C): > 100 µM (inactive) | GI50 (PC-3): > 100 µM (inactive) | GI50 (EKVX): > 100 µM (inactive) | GI50 (NCI-H226): > 100 µM (inactive) | GI50 (SF-295): > 100 µM (inactive) | GI50 (RPMI-8226): > 100 µM (inactive) | GI50 (SK-OV-3): > 100 µM (inactive) | GI50 (SNB-75): > 100 µM (inactive) | GI50 (COLO 205): > 100 µM (inactive) | GI50 (CCRF-CEM): > 100 µM (inactive) | GI50 (TK-10): > 100 µM (inactive) | GI50 (CAKI-1): > 100 µM (inactive) | GI50 (NCI-H23): > 100 µM (inactive) | GI50 (HL-60): > 100 µM (inactive) | GI50 (DU-145): > 100 µM (inactive) | GI50 (SK-MEL-28): > 100 µM (inactive) | GI50 (ACHN): > 100 µM (inactive) | GI50 (Malme-3M): > 100 µM (inactive) | GI50 (HCC 2998): > 100 µM (inactive) | GI50 (U-251): > 100 µM (inactive) | GI50 (MDA-N): > 100 µM (inactive) | GI50 (HCT-116): > 100 µM (inactive) | GI50 (OVCAR-8): > 100 µM (inactive) | GI50 (786-0): > 100 µM (inactive) | GI50 (UACC-257): > 100 µM (inactive) | GI50 (NCI-H460): > 100 µM (inactive) | GI50 (SNB-19): > 100 µM (inactive) | GI50 (Hs-578T): > 100 µM (inactive) | GI50 (NCI/ADR-RES): > 100 µM (inactive) | GI50 (BT-549): > 100 µM (inactive) | GI50 (A498): > 100 µM (inactive) | GI50 (SR): > 100 µM (inactive) | GI50 (HCT-15): 36.5 µM | GI50 (SK-MEL-5): > 100 µM (inactive) | GI50 (UACC-62): > 100 µM (inactive) | GI50 (HT-29): > 100 µM (inactive) | GI50 (A549): > 100 µM (inactive) | GI50 (MDA-MB-435): > 100 µM (inactive) | GI50 (MOLT-4): > 100 µM (inactive) | GI50 (SW-620): > 100 µM (inactive) | GI50 (SF-268): > 100 µM (inactive) | GI50 (IGROV-1): > 100 µM (inactive) | GI50 (HOP-62): > 100 µM (inactive) | GI50 (RXF 393): > 100 µM (inactive) | GI50 (OVCAR-4): > 100 µM (inactive) | GI50 (SK-MEL-2): > 100 µM (inactive) | GI50 (MDA-MB-231): > 100 µM (inactive) | GI50 (HOP-92): > 100 µM (inactive) | GI50 (MCF7): > 100 µM (inactive) | GI50 (UO-31): > 100 µM (inactive) | GI50 (K562): > 100 µM (inactive) | GI50 (OVCAR-5): > 100 µM (inactive) | GI50 (NCI-H522): > 100 µM (inactive) | GI50 (OVCAR-3): > 100 µM (inactive) | GI50 (KM12): > 100 µM (inactive) | GI50 (M14): > 100 µM (inactive)
